Experimental data published in patent publication US10786505B2, “Administration of NEDD8-activating enzyme inhibitor and chemotherapeutic agents” (Millennium Pharmaceuticals, Inc., priority 2013, dated 2020).

What was measured:
[1] = test system: PHTX02B xenograft model; assay: Combination of gemcitabine and MLN4924 in PHTX02B xenograft model; format: in vivo, mice
Procedure: (§1) The PHTX02B breast xenograft model was established from a patient-derived tumor collected during surgery from a person with invasive ductal carcinoma classified as triple negative breast cancer (ER-/PR-/Her2-) by IHC. […] Gemcitabine (Gemzar, Henry Schein, Inc, Pittsburgh Pa., and Myoderm Medical, Norristown, Pa.) is formulated in 0.9% saline and administered by intraperitoneal injection (IP) q3Dx4 (every 3 days for a total of 4 doses) at 2.5 mg/kg or 10 mg/kg, or by IV injection twice weekly (BIW) at 20 mg/kg IVU. […] Tumors are measured twice weekly using a vernier caliper. […] Tumor size and body weight are measured approximately twice a week for the duration of the study. […] Tumor growth continued to be monitored after the dosing period in some studies. […] Average tumor volume is reported as a function of time for selected groups of selected studies in Figures A, B, and C. Measurements from day 0 to 18, 21 or 22 are analyzed as specified in Tables 4-9. […] For each animal, the log tumor volume at day 0 is subtracted from the log tumor volume on the subsequent days. This difference vs. time is used to calculate an area under the curve (AUC) for each animal using the trapezoid rule. In instances when an animal in a treatment group is removed early from the study, the last observed tumor value is carried forward through all subsequent time points. […] The standard error of the synergy score is computed based on the variation in the AUC values among the animals. […] Otherwise, the combination is classified as antagonistic.

[2] = test system: PHTX249Pa xenograft model; assay: Combination of gemcitabine and MLN4924 in PHTX249Pa xenograft model; format: in vivo, mice
Procedure: as §1, with “PHTX249 Pa pancreatic” for “PHTX02B breast”, “pancreatic adenocarcinoma.” for “invasive ductal carcinoma classified as triple negative breast cancer (ER-/PR-/Her2-) by IHC.”

[3] = test system: BxPC3; assay: In vitro cell viability combination assay (CellTiter-Glo); format: cell-based; settings: agent combined with MLN4924, vehicle DMSO, 72 hr
Source text: (§2) After normalization, the controls are discarded.
(§3) Otherwise, the classification is “Additivity”.

[4] = test system: PANC1; assay: as above; format: cell-based; settings: agent combined with MLN4924, vehicle DMSO, 72 hr
Source text: as §2, §3

[5] = test system: MIA PaCa-2; assay: as above; format: cell-based; settings: agent combined with MLN4924, vehicle DMSO, 72 hr
Source text: as §2, §3

[6] = test system: A549; assay: as above; settings: 72 hr
Procedure: (§9) General Method: Cells are grown in their respective growth media, supplemented with 10% fetal bovine serum unless otherwise noted. […] A portion of each plate is used for positive controls (no agent is added), while another portion of each plate is used for negative controls (no cells are added). Viability is assessed with CellTiter-Glo® Cell Viability reagent used according to manufacturer's instructions (Promega). Luminescence is measured using a LEADseeker imaging system (GE Healthcare).
(§10) The viability data is normalized separately for each plate by scaling the data so that the median of the negative controls is 0 and the median of the positive controls is 100. More formally,
(§11) [formula] where Vi is the normalized viability of the i^th well, Ui is the raw viability measurement, median (U) is the median of the negative controls, and median (U+) is the median of the positive controls. After normalization, the controls are discarded.
(§12) where E1, E2, E3, E4, I1, I2, I3, S1, S2, S3, and S4 are parameters, CA and CB are the respective concentrations of agents A and B, and V is the normalized viability measurement. It is assumed that the error values are independent and identically distributed normal random variables.
(§13) The Combination Index is computed based on an isobologram, which is a slice of the dose response surface with constant viability. For the present analysis, the 50% isobologram, which is the dose contour that has 50% viability, is used. […] Since the choice of (DA, DB) can be arbitrary, the constraint DA/DB=EC50A/EC50B is used.
(§14) In such cases, Nonlinear Blending can be used as an alternative measure of synergy or additivity. Nonlinear Blending is found by considering a slice of the dose response surface that intersects both concentration axes and runs parallel to the viability axis. Let VA and VB be the viability where the slice intersects the drug A and B axes, respectively. Let Vmax and Vmin be the maximum and minimum viabilities along the slice. Let NLBS=min(VA,VB)−Vmin NLBA=Vmax−max(VA,VB) Define the Nonlinear Blending value to be NLBS if NLBS>NLBA and −NLBA otherwise.
(§15) After completing the analysis of individual plates, the results are combined across the replicates. For a given measure and a set of replicates, the overall mean and standard error are computed using weighted averaging. A null mean, which corresponded to an additive effect, is then compared with the overall mean. The null mean is 1 for the Combination Index and 0 for Nonlinear Blending. Next, a two sized Z-test is performed based on the estimated mean and standard error. This produces a p-value for each measure and each cell line.
(§16) After computing the mean, standard error, and p-value for each set of replicates, these values require interpretation. Thus, a standard procedure is used to produce a classification (synergy, additivity, subadditivity, antagonism, or inconclusive) in each case. If the Combination Index exists for more than half of the replicates, then these measures are used to make the classification.
(§17) Consider the case where the Combination Index is used to make the classification. If the p-value is greater than 0.05, the estimate for the Combination Index is not statistically different from 1. However, if the standard error is also very large, then the estimate is too uncertain to be informative. […] Otherwise, the classification is “Additivity”. When the p-value is less than 0.05, the estimate for the Combination Index is statistically different from 1. However, if the mean is still close to 1, then the difference is not of practical significance. Thus, the result is classified based on the mean. A mean in the range (0.8, 1.2) is considered close enough to 1 to be classified as Additivity. A mean in the range (0, 0.8) is considered low enough to be classified as Synergy. […] The threshold value of 2 can be derived from the definition of the Combination Index.

[7] = test system: HCT116; assay: as above; settings: 48 hr
Procedure: as §9, §10, §11, §12, §13, §14, §15, §16, §17

[8] = test system: LU1143 xenograft model; assay: Combination of docetaxel or carboplatin and MLN4924 in LU1143 xenograft model; format: in vivo, mice; settings: 10 mg/kg docetaxel QW IV
Procedure: (§4) Docetaxel (Henry Schein, Inc., Pittsburgh Pa., Qilu Pharmaceutical Co., Ltd., Jinan, Shandong, China, and Sanofi-Aventis) is formulated in 0.9% saline and administered by intravenous injection (IV) once weekly (QW) at 5 mg/kg or 10 mg/kg.
(§5) Carboplatin (CARBOplatin Injection, Hospira, Inc., Qilu Pharmaceutical Co., Ltd. Jinan, Shandong, China, and Teva Gry-Pharma GmbH, Ulm, Germany) is formulated in 0.9% saline and administered by IP injection once weekly (QW) at 50 mg/kg. The once weekly schedule is also described as every 7 days (Q7D).
(§6) Tumors are measured twice weekly using a vernier caliper. Tumor volumes are calculated using standard procedures (0.5×(length×width^2)). […] Tumor size and body weight are measured approximately twice a week for the duration of the study. Mice are euthanized when their tumor volume reached 10% of their body weight, or when the average tumor volume of a treatment or control group reached approximately 2000 mm^3. Tumor growth continued to be monitored after the dosing period in some studies. Average tumor volume is reported as a function of time for selected groups of selected studies in Figures A, B, and C.
Measurements from day 0 to 18, 21 or 22 are analyzed as specified in Tables 4-9. All tumor volumes have a value of 1 added to them before log10 transformation. For each animal, the log tumor volume at day 0 is subtracted from the log tumor volume on the subsequent days. This difference vs. time is used to calculate an area under the curve (AUC) for each animal using the trapezoid rule. […] The synergy score for the combination of agents A and B is defined as 100*(mean(AUCAB)−mean(AUCA)−mean(AUCB)+mean(AUCctl))/mean(AUCctl): where AUCAB, AUCA, AUCB, and AUCctl are the AUC values for animals in the combination group, the A group, the B group, and the control group, respectively. The standard error of the synergy score is computed based on the variation in the AUC values among the animals. […] If the P-value is above 0.05, then the combination is considered to be additive. […]

[9] = test system: NCI-H209; assay: In vitro cell viability combination assay (CellTiter-Glo); settings: agent combined with MLN4924, vehicle DMSO, 96 hr
Procedure: as §9, §10, §11, §12, §13, §14, §15, §16, §17

[10] = test system: PHTX02B breast xenograft model; assay: Combination of docetaxel and MLN4924 in PHTX02B xenograft model; format: in vivo, mice
Source text: The PHTX02B breast xenograft model was established from a patient-derived tumor collected during surgery from a person with invasive ductal carcinoma classified as triple negative breast cancer (ER−/PR−/Her2−) by IHC. PHTX02B tumor fragments (approximately 2×2×3 mm^3) are implanted into the subcutaneous space in the right dorsal flank of female SCID-NOD mice (age 5-7 weeks, Jackson Laboratory, Bar Harbor, Me.) using a 13-gauge trocar.
as §4, §6
(§7) Measurements from day 0 to 18, 21 or 22 are analyzed as specified in Tables 4-9. All tumor volumes have a value of 1 added to them before log10 transformation. For each animal, the log tumor volume at day 0 is subtracted from the log tumor volume on the subsequent days. This difference vs. time is used to calculate an area under the curve (AUC) for each animal using the trapezoid rule. […] The synergy score for the combination of agents A and B is defined as 100*(mean(AUCAB)−mean(AUCA)−mean(AUCB)+mean(AUCctl))/mean(AUCctl): where AUCAB, AUCA, AUCB, and AUCctl are the AUC values for animals in the combination group, the A group, the B group, and the control group, respectively. The standard error of the synergy score is computed based on the variation in the AUC values among the animals. […] If the P-value is above 0.05, then the combination is considered to be additive. If the P-value is below 0.05, and the synergy score is less than zero, then the combination is considered to be synergistic. […] Otherwise, the combination is classified as antagonistic.

[11] = test system: NCI-H1650 xenograft model; assay: Combination of docetaxel and MLN4924 in NCI-H1650 xenograft model; format: in vivo, mice
Source text: NCI-H1650 (2×10^6) tumor cells in RPMI-1640 media are mixed with an equal volume of Matrigel (BD Biosciences) and aseptically injected into the subcutaneous space in the right dorsal flank of Balb/c Nude mice (age 4-6 weeks, Shanghai SINO-British SIPPR/BK Lab Animal Ltd.) using a 25-gauge needle.
as §4, §6, §7

[12] = test system: LXFE409 xenograft model; assay: Combination of docetaxel or carboplatin and MLN4924 in LXFE409 xenograft model; format: in vivo, mice
Procedure: LXFE409 squamous non small cell lung cancer tumor fragments are implanted into the subcutaneous space in the flank of female NMRI nu/nu mice (5-7 weeks, Janvier Labs, Saint Berthevin, France).
as §4, §5, §6, §7

[13] = test system: NCI-H510; assay: In vitro cell viability combination assay (CellTiter-Glo); settings: agent combined with MLN4924, vehicle DMSO, 96 hr
Procedure: as §9, §10, §11, §12, §13, §14, §15, §16, §17

[14] = test system: NCI-H82; assay: as above; settings: agent combined with MLN4924, vehicle DMSO, 96 hr
Procedure: as §9, §10, §11, §12, §13, §14, §15, §16, §17

[15] = test system: NCI-H526; assay: as above; settings: agent combined with MLN4924, vehicle DMSO, 96 hr
Procedure: as §9, §10, §11, §12, §13, §14, §15, §16, §17

[16] = test system: NCI-H69 xenograft model; assay: Combination of cisplatin and MLN4924 in NCI-H69 xenograft model; format: in vivo, mice; settings: 4 mg/kg Cisplatin Q4Dx3 IP
Procedure: (§8) NCI-H69 or NCI-H82 small cell lung tumor fragments (30- to 40-mg) are implanted into the subcutaneous space in the area of the right flank of NCr nu/nu mice (7-10 weeks, Charles River Laboratories, Inc, Frederick Md. or Wilmington, Mass.) using a 12-gauge trocar.
as §6, §7

[17] = test system: NCI-H69; assay: In vitro cell viability combination assay (CellTiter-Glo); format: cell-based; settings: agent combined with MLN4924, vehicle DMSO, 96 hr
Source text: as §2, §3

[18] = test system: NCI-H82 xenograft model; assay: Combination of cisplatin and MLN4924 in NCI-H82 xenograft model; format: in vivo, mice
Procedure: as §8, §6, §7

[19] = agent combined with MLN4924, vehicle DMSO
[20] = agent combined with MLN4924, vehicle PBS

Nc1ccn([C@@H]2O[C@H](CO)[C@@H](O)C2(F)F)c(=O)n1 [gemcitabine]
average tumor volume day 22 ([1]; 2.5 mg/kg gemcitabine Q3Dx4 IP): 1386.3 mm^3 | average tumor volume day 22 ([1]; 10 mg/kg gemcitabine Q3Dx4 IP): 769.4 mm^3 | tumor growth during the treatment period (in words) ([1]; FIG. 2, MLN4924 SC 30 mg/kg BID, gemcitabine 10 mg/kg IP q3dx4, single agents or their combination): inhibited tumor growth compared to the control vehicle group | average tumor volume day 18 ([2]; PHTX249Pa xenograft, 20 mg/kg gemcitabine BIW IV): 585.1 mm^3 | tumor growth compared to the control vehicle group (in words) ([2]; PHTX249 Pa xenograft, gemcitabine 20 mg/kg IV BIW, MLN4924 90 mg/kg SC BID BIW, single agents or their combination): inhibited tumor growth compared to the control vehicle group | Combination Index [3]: 1.49 | Nonlinear Blending [3]: −26.0 | Combination Index [4]: 0.24 | Nonlinear Blending [4]: 19.4 | Combination Index [5]: 1.15 | Nonlinear Blending [5]: −8.1 | Combination Index [6, 19]: 1.44 ± 0.07 | Nonlinear Blending [6, 19]: −16 ± 3 | Combination Index [7, 19]: 0.49 ± 0.1 | Nonlinear Blending [7, 19]: 30 ± 3

CC(=O)O[C@@]12CO[C@@H]1C[C@H](O)[C@@]1(C)C(=O)[C@H](O)C3=C(C)[C@@H](OC(=O)[C@H](O)[C@@H](NC(=O)OC(C)(C)C)c4ccccc4)C[C@@](O)([C@@H](OC(=O)c4ccccc4)[C@H]21)C3(C)C [docetaxel]
average tumor volume day 21 [8]: 498.9 mm^3 | Combination Index [9]: 1.27 ± 0.09 | Nonlinear Blending [9]: −16 ± 5 | tumor growth during the treatment period (in words) ([10]; PHTX02B breast xenograft, FIG. 1, MLN4924 SC 60 mg/kg BID 5 days on/5 days off, docetaxel 5 mg/kg IV QW, single agents or their combination): inhibited tumor growth compared to the control vehicle group | average tumor volume day 21 ([10]; PHTX02B xenograft, 5 mg/kg docetaxel QW IV): 736.3 mm^3 | average tumor volume day 21 ([11]; 5 mg/kg docetaxel QW IV): 719.2 mm^3 | average tumor volume day 21 ([11]; 10 mg/kg docetaxel QW IV): 282.7 mm^3 | tumor course after the treatment period, to end of study on day 95 (in words) ([12]; LXFE409 sqNSCLC model, FIG. 4, MLN4924 120 mg/kg SC Q2Dx3/week for 3 weeks, docetaxel 10 mg/kg IV QW for 3 weeks, single agents or combination): regrew after the treatment period ended | average tumor volume day 21 ([12]; LXFE409 xenograft, 10 mg/kg docetaxel QW IV): 44.6 mm^3 | Combination Index [6, 19]: 1.00 ± 0.1 | Nonlinear Blending [6, 19]: 1 ± 1 | Combination Index [7, 19]: 1.01 ± 0.09 | Nonlinear Blending [7, 19]: 7 ± 2 | Combination Index [13]: 1.15 ± 0.08 | Nonlinear Blending [13]: −13 ± 4 | Combination Index [14]: 1.45 ± 0.09 | Nonlinear Blending [14]: −11 ± 2 | Combination Index [15]: 1.38 ± 0.06 | Nonlinear Blending [15]: −23 ± 3

N.N.[Cl][Pt][Cl] [cisplatin]
Combination Index [9]: 1.28 ± 0.08 | Nonlinear Blending [9]: −15 ± 3 | average tumor volume day 22 [16]: 213.6 mm^3 | Combination Index [17]: 1.28 ± 0.2 | Nonlinear Blending [17]: −7 ± 3 | average tumor volume day 22 ([18]; 2 mg/kg cisplatin Q4Dx3 IP): 628.7 mm^3 | average tumor volume day 22 ([18]; 4 mg/kg cisplatin Q4Dx3 IP): 445.2 mm^3 | Combination Index [6, 19]: 0.65 ± 0.03 | Nonlinear Blending [6, 19]: 11 ± 5 | Combination Index [6, 20]: 0.75 ± 0.05 | Nonlinear Blending [6, 20]: 10 ± 1 | Combination Index [7, 19]: 0.76 ± 0.02 | Nonlinear Blending [7, 19]: 21 ± 1 | Combination Index [7, 20]: 0.76 ± 0.09 | Nonlinear Blending [7, 20]: 14 ± 6 | Nonlinear Blending [13]: 20 ± 3 | Combination Index [14]: 0.81 ± 0.07 | Nonlinear Blending [14]: 10 ± 2
